# Assay results taken from patent US20080161366A1, “AMINOALKYL SUBSTITUTED ARYL SULFAMIDE DERIVATIVES AND METHODS OF THEIR USE” (Wyeth, priority 2006, published 2008).
# Counter-ions that a name gives are not always drawn.
# Target: human norepinephrine transporter (hNET) (Homo sapiens, UniProt P23975)
# Test: hNET uptake, Protocol B: cell based norepinephrine reuptake assay using recombinant hNET (MDCK-Net6 cells)
# Settings: NE uptake (Protocol B) IC50 (nM), MDCK-Net6 cells, 3H-NE 16 nM
# human norepinephrine transporter (hNET), sequence (P23975 whole entry): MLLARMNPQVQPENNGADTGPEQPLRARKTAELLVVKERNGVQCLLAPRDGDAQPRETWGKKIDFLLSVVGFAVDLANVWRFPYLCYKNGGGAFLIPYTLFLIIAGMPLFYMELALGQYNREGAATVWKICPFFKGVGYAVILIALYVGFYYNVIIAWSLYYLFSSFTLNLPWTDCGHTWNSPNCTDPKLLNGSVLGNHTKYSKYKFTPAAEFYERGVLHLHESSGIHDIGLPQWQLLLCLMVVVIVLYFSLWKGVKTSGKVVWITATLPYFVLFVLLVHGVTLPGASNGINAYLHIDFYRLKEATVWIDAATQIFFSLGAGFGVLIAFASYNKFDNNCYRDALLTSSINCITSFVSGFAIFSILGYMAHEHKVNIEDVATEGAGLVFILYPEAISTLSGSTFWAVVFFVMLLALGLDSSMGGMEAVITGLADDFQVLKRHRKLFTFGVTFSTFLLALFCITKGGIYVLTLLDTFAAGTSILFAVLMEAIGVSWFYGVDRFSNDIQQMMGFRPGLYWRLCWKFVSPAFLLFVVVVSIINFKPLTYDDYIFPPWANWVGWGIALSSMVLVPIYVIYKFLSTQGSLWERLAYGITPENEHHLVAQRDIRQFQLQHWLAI
row,SMILES,IC50
1,"CCc1ccc(N2c3ccccc3N(CCCNC)S2(=O)=O)nc1 [Example 29, 3-[3-(5-ethylpyridin-2-yl)-2,2-dioxido-2,1,3-benzothiadiazol-1(3H)-yl]-N-methylpropan-1-amine hydrochloride]",434 nM
2,"CNCCCN1c2cnccc2N(c2ccccc2)S1(=O)=O [Example 25, 3-(2,2-dioxido-1-phenyl[1,2,5]thiadiazolo[3,4-c]pyridin-3(1H)-yl)-N-methylpropan-1-amine]",146 nM
3,"CNCCCN1c2c(F)cccc2N(c2ccccc2)S1(=O)=O [Example 39, 3-(7-fluoro-2,2-dioxido-3-phenyl-2,1,3-benzothiadiazol-1(3H)-yl)-N-methylpropan-1-amine]",29.3 nM
4,"O=S1(=O)N(CCCNC2CC2)c2ccccc2N1c1ccccc1 [Example 96, N-[3-(2,2-dioxido-3-phenyl-2,1,3-benzothiadiazol-1(3H)-yl)propyl]cyclopropanamine]",113 nM
5,"CNCCCN1c2ccccc2N(c2ccc(OC)cc2)S1(=O)=O [Example 7, 3-[3-(4-methoxyphenyl)-2,2-dioxido-2,1,3-benzothiadiazol-1(3H)-yl]-N-methylpropan-1-amine]",1780 nM
6,"CNCCCN1c2cc(F)ccc2N(c2ccccc2)S1(=O)=O [Example 35, 3-(6-fluoro-2,2-dioxido-3-phenyl-2,1,3-benzothiadiazol-1(3H)-yl)-N-methylpropan-1-amine]",20.6 nM
7,"CNCCCN1c2ccccc2N(c2ccc(O)cc2F)S1(=O)=O [Example 92, 3-fluoro-4-{3-[3-(methylamino)propyl]-2,2-dioxido-2,1,3-benzothiadiazol-1(3H)-yl}phenol hydrochloride]",3 nM
8,"CNCCCN1c2cc(Br)ccc2N(c2ccccc2)S1(=O)=O [Example 37, 3-(6-bromo-2,2-dioxido-3-phenyl-2,1,3-benzothiadiazol-1(3H)-yl)-N-methylpropan-1-amine]",2360 nM
9,"CNCCCN1c2c(F)cccc2N(c2cccc(F)c2)S1(=O)=O [Example 42, 3-[7-fluoro-3-(3-fluorophenyl)-2,2-dioxido-2,1,3-benzothiadiazol-1(3H)-yl]-N-methylpropan-1-amine]",86.3 nM
10,"O=S1(=O)N(CCNC2CCNCC2)c2ccccc2N1c1ccccc1 [Example 134, N-[2-(2,2-dioxido-3-phenyl-2,1,3-benzothiadiazol-1(3H)-yl)ethyl]piperidin-4-amine dihydrochloride]",67 nM
11,"CNCCCN1c2ccccc2N(c2ncccc2C)S1(=O)=O [Example 27, N-methyl-3-[3-(3-methylpyridin-2-yl)-2,2-dioxido-2,1,3-benzothiadiazol-1(3H)-yl]propan-1-amine hydrochloride]",11.7 nM
12,"CNCCCN1c2ccccc2N(c2ccc(F)c(F)c2)S1(=O)=O [Example 109, 3-[3-(3,4-difluorophenyl)-2,2-dioxido-2,1,3-benzothiadiazol-1(3H)-yl]-N-methylpropan-1-amine]",20 nM
13,"CNCCCN1c2ccccc2N(c2cnccc2C)S1(=O)=O [Example 33, N-methyl-3-[3-(4-methylpyridin-3-yl)-2,2-dioxido-2,1,3-benzothiadiazol-1(3H)-yl]propan-1-amine hydrochloride]",282 nM
14,"CNCCCCN1c2ccccc2N(c2ccc(C)cc2F)S1(=O)=O [Example 104, 4-[3-(2-fluoro-4-methylphenyl)-2,2-dioxido-2,1,3-benzothiadiazol-1(3H)-yl]-N-methylbutan-1-amine]",26 nM
15,"CNCCCN1c2ccccc2N(c2cccc(C)n2)S1(=O)=O [Example 32, N-methyl-3-[3-(6-methylpyridin-2-yl)-2,2-dioxido-2,1,3-benzothiadiazol-1(3H)-yl]propan-1-amine hydrochloride]",192 nM
16,"CNCCCCCCN1c2ccccc2N(c2ccccc2F)S1(=O)=O [Example 101, 6-[3-(2-fluorophenyl)-2,2-dioxido-2,1,3-benzothiadiazol-1(3H)-yl]-N-methylhexan-1-amine]",1160 nM
